One assay concerns bone marrow cells. The assay can be described thus: NAM/PI staining of bone marrow derived cells. It is filed as cell-based, murine. Conditions: bone marrow cells 93% viable; 10 μL NAM (100 μg pr. mL DMSO) to 90 μL cells. The method, then: Materials and Methods. The bone marrow cells were harvested aseptically in the laminarflow hood. Briefly, bilateral tibia and femur were aseptically removed, freed of surrounding soft tissue, and placed in a petri dish with 10 mL 70% ethanol. After 2 minutes they were transferred to ice cold PBS. The bone marrow cavity was then flushed with 5 ml cold PBS using a 5-ml syringe with a 27-gauge needle attached, and the cells were collected from each bone. The cells were centrifuged at 300 g for 10 min, the supernatant was discarded, and cells were washed twice. […] 90 μL bone marrow cellss (cell density 1.7×10^6, 93% viable determined using the NC-100 NucleoCounter system following the manufacturer's (ChemoMetec A/S) protocol) were added 10 μL NAM (N-(9-acridinyl)maleimide, Sigma, #01665, CAS no. 49759-20-8) dissolved in DMSO (100 μg NAM pr. mL DMSO) and mixed by pipetting. […] The cells were investigated using an Olympus IX50 fluorescence microscope, and images were captured using a Lumenera CCD camera and in-house developed software. PI and NAM fluorescence were detected using, respectively, U-MWG2 (green long pass: 510-550 nm) and U-MNUA2 (UV band pass, 330-385 nm) filter cubes (Olympus).

In assay [1] the test system is bone marrow derived dendritic cells (BM-DCs). The assay can be described thus: Staining of bone marrow derived dendritic cells with labelling agent and PI. It is filed as cell-based, murine. Conditions: dendritic cells 97% viable; 10 μL NAM (100 μg pr. mL DMSO) to 90 μL cells. The text has this: Materials and Methods. Dendritic cells were developed from murine bone marrow derived cells as described by “Lutz, M. B., N. Kukutsch, A. L. Ogilvie, S. Rossner, F. Koch, N. Romani, and G. Schuler. 1999. An advanced culture method for generating large quantities of highly pure dendritic cells from mouse bone marrow. J Immunol Methods 223:77-92”. Bone marrow cells were harvested aseptically in the laminar flow hood as described in example 11. Washed and resuspended bone marrow cells were resuspended in RPMI 1640 (Invitrogen, #61870) supplemented with 10% heat-inactivated fetal bovine serum (Invitrogen, #10108-165), 100 U/mL penicillin and 100 μg/mL streptomycin (Invitrogen, #15140-122). […] 90 μL dendritic cells (cell density 1.2×10^6, 97% viable determined using the NC-100 NucleoCounter system following the manufacturer's (ChemoMetec A/S) protocol) were added 10 μL NAM (N-(9-acridinyl)maleimide, Sigma, #01665, CAS no. 49759-20-8) dissolved in DMSO (100 μg NAM pr. mL DMSO) and mixed by pipetting. […] The cells were investigated using an Olympus IX50 fluorescence microscope, and images were captured using a Lumenera CCD camera and in-house developed software. PI and NAM fluorescence were detected using, respectively, U-MWG2 (green long pass: 510-550 nm) and U-MNUA2 (UV band pass, 330-385 nm) filter cubes (Olympus). […]

The test system of assay [2] is primary murine splenocytes. The assay can be described thus: NAM/PI staining of primary murine splenocytes. It is filed as cell-based, C57BL/6 mouse. To be noted: splenocytes 90% viable; 10 μL NAM (100 μg pr. mL DMSO) to 90 μL cells. Here is the method:
Materials and Methods. The spleen from a C57BL/6 mouse was placed in ice-cold PBS and gently ground using the end of a sterile syringe. The suspension was centrifuged at 300 g for 10 minutes; the pellet was resuspended in 1 mL 0.83% NH4Cl to lyse erythrocytes and incubated for 3 minutes on ice. The cells were then added 14 mL PBS and centrifuged at 300 g for 10 minutes. The splenocytes were resuspended in RPMI (Invitrogen, #61870) supplemented with 10% heat-inactivated fetal bovine serum (Invitrogen, #10108-165), 100 U/mL penicillin and 100 μg/mL streptomycin (Invitrogen, #15140-122). The cell clumps were allowed to sediment and were removed by pipetting, and the resulting single cell suspension was used. 90 μL splenocytes (cell density 1.7×10^6, 90% viable determined using the NC-100 NucleoCounter system following the manufacturer's (ChemoMetec A/S) protocol) were added 10 μL NAM (N-(9-acridinyl)maleimide, Sigma, #01665, CAS no. 49759-20-8) dissolved in DMSO (100 μg NAM pr. mL DMSO) and mixed by pipetting. […] The cells were investigated using an Olympus IX50 fluorescence microscope, and images were captured using a Lumenera CCD camera and in-house developed software. PI and NAM fluorescence were detected using, respectively, U-MWG2 (green long pass: 510-550 nm) and U-MNUA2 (UV band pass, 330-385 nm) filter cubes (Olympus).

Regarding `O=C1C=CC(=O)N1c1c2ccccc2nc2ccccc12` [NAM, N-(9-acridinyl)maleimide], the “staining of cells (UV filter) versus PI positive cells” value is given as “nearly all the primary bone marrow cells were stained by NAM” in the assay on bone marrow cells, “nearly all the dendritic cells were stained by NAM” in assay [1] and “nearly all the primary spleen cells were stained by NAM” in assay [2].

For the origin of these results see patent US9128097B2, “Method and kit for assessing viable cells” (ChemoMetec A/S, priority 2008, dated 2015).
